Source: US20060264419A1 (priority 2003, published 2006)

Biological target: 5-HT2A receptors (Rattus norvegicus, UniProt P14842)
Experiment: in-vitro affinity to 5-HT2A receptors, displacement of [3H]ketanserine (Example A1)
Assay type: binding
Conditions: read-out: HT2A IC50
Source text: The 5-HT2A receptors are exposed both to [^3H]ketanserine (a substance which is known for its affinity to the receptor) and also to the test compound. The decrease in the affinity of [^3H]ketanserine to the receptor is an indication of the affinity of the test substance to the 5-HT2A receptor.

Sequence of 5-HT2A receptors (P14842 whole entry): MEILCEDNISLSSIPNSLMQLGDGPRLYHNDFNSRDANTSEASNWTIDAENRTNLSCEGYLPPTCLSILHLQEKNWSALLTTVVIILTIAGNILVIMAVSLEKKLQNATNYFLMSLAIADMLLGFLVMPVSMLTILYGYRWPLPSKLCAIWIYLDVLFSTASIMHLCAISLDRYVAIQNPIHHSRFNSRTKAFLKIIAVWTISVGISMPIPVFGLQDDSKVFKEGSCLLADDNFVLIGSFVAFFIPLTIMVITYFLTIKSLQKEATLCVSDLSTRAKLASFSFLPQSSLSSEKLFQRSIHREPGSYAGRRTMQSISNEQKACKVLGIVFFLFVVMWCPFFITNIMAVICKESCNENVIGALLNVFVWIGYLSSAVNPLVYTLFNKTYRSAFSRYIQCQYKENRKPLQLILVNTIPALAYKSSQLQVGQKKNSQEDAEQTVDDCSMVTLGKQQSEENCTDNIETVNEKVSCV

First: CCN(Cc1ccccc1)Cc1cnn(-c2ccc(-c3ccccc3)cc2)c1-c1ccccc1F [Example 1039, Benzyl-[1-biphenyl-4-yl-5-(2-fluoro-phenyl)-1H-pyrazol-4-ylmethyl]ethylamine]
Second: O=c1ccccn1Cc1cnn(-c2ccc(-c3ccccc3)cc2)c1-c1ccccc1F [Example 1012, 1-[1-Biphenyl-4-yl-5-(2-fluorophenyl)-1H-pyrazol-4-ylmethyl]-1H-pyridin-2-one]
The IC50 of the first is 1.6-fold higher: 320 nM for the first, 200 nM for the second. The second is the more potent here.

`Fc1ccccc1-c1c(CNCCCn2ccnc2)cnn1-c1ccc(-c2ccccc2)cc1` [Example 1001, [1-Biphenyl-4-yl-5-(2-fluorophenyl)-1H-pyrazol-4-ylmethyl]-(3-imidazol-1-ylpropyl)amine] and `Nc1ccncc1NCc1cnn(-c2ccc(-c3ccccc3)cc2)c1-c1ccccc1F` [Example 1006, N3-[1-Biphenyl-4-yl-5-(2-fluoro-phenyl)-1H-pyrazol-4-ylmethyl]pyridine-3,4-diamine] are within 1.5-fold of each other in IC50: 170 nM for the first, 180 nM for the second.

Going from `NC(=O)CN1CCN(Cc2cnn(-c3ccc(-c4ccccc4)cc3)c2-c2ccccc2F)CC1` [Example 1042, 2-{4-[1-Biphenyl-4-yl-5-(2-fluoro-phenyl)-1H-pyrazol-4-ylmethyl]piperazin-1-yl}acetamide] to `O=C(CN1CCN(Cc2cnn(-c3ccc(-c4ccccc4)cc3)c2-c2ccccc2F)CC1)N1CCCC1` [Example 985, 2-{4-[1-Biphenyl-4-yl-5-(2-fluoro-phenyl)-1H-pyrazol-4-ylmethyl]piperazin-1-yl}-1-pyrrolidin-1-ylethanone], the IC50 falls from 360 nM to 122 nM (3-fold). The second is the more potent here.

Going from `Cc1cccc(-c2c(CN3CCN(C)CC3)cnn2-c2ccc(-c3ccc(F)cc3)cc2)c1` [Example 940, 1-[1-(4′-Fluorobiphenyl-4-yl)-5-m-tolyl-1H-pyrazol-4-ylmethyl]-4-methylpiperazine] to `CN1CCN(Cc2cnn(-c3cccc(-c4ccc(Cl)cc4)c3)c2-c2ccccc2F)CC1` [Example 1049, 1-[1-(4′-Chlorobiphenyl-3-yl)-5-(2-fluoro-phenyl)-1H-pyrazol-4-ylmethyl]-4-methyl-piperazine], the IC50 rises from 37 nM to 390 nM (11-fold). The first is the more potent here.

`CCN(CC)CC1CCCCN1Cc1cnn(-c2ccc(-c3ccccc3)cc2)c1-c1ccccc1F` (stereo not shown) [Example 1028, {1-[1-Biphenyl-4-yl-5-(2-fluorophenyl)-1H-pyrazol-4-ylmethyl]piperidin-2-ylmethyl}-diethylamine] and `CCC1(O)CCN(Cc2cnn(-c3ccc(-c4ccccc4)cc3)c2-c2ccccc2F)CC1` [Example 1033, 1-[1-Biphenyl-4-yl-5-(2-fluorophenyl)-1H-pyrazol-4-ylmethyl]-4-ethylpiperidin-4-ol] are within 1.5-fold of each other in IC50: 270 nM for the first, 280 nM for the second.

Going from `Fc1ccc(F)c(-c2ccc(-n3ncc(CNc4cc[nH]n4)c3-c3ccccc3F)cc2)c1` [Example 1005, [1-(2′,5′-Difluorobiphenyl-4-yl)-5-(2-fluoro-phenyl)-1H-pyrazol-4-ylmethyl]-(1H-pyrazol-3-yl)amine] to `Fc1ccccc1-c1c(C=CCN2CCOCC2)cnn1-c1ccc(-c2ccccc2)cc1` [Example 908, 4-{3-[1-Biphenyl-4-yl-5-(2-fluorophenyl)-1H-pyrazol-4-yl]allyl}morpholine], the IC50 falls from 180 nM to 17 nM (11-fold).

Same assay, conditions: target not given; description names affinity to 5-HT2A receptors; read-out: IC50

Compared with `Fc1ccccc1-c1c(CN2CCc3ccccc3C2)cnn1-c1ccc(-c2ccccc2)cc1` [(36), 2-[1-Biphenyl-4-yl-5-(2-fluorophenyl)-1H-pyrazol-4-ylmethyl]-1,2,3,4-tetrahydroisoquinoline], `Fc1ccccc1-c1c(CN2CC=CC2)cnn1-c1ccc(-c2ccccc2)cc1` [(30), 1-Biphenyl-4-yl-4-(2,5-dihydropyrrol-1-ylmethyl)-5-(2-fluorophenyl)-1H-pyrazole] is 1.9-fold lower in IC50: 70 nM for the first, 36 nM for the second.

Going from `Fc1ccccc1-c1c(CN2CCOCC2)cnn1-c1ccc(-c2cccs2)cc1` [(62), 4-[5-(2-Fluorophenyl)-1-(4-thiophen-2-ylphenyl)-1H-pyrazol-4-ylmethyl]morpholine] to `Fc1ccccc1-c1c(CCCN2CCOCC2)cnn1-c1ccc(-c2ccccc2)cc1` [(47), 4-{3-[1-Biphenyl-4-yl-5-(2-fluorophenyl)-1H-pyrazol-4-yl]propyl}morpholine], the IC50 falls from 620 nM to 23 nM (27-fold). The second is the more potent here.

Going from `OCCc1cnn(-c2ccc(-c3ccccc3)cc2)c1-c1ccccc1F` [(173), 2-[1-Biphenyl-4-yl-5-(2-fluorophenyl)-1H-pyrazol-4-yl]-ethanol] to `NCCc1cnn(-c2ccc(-c3ccccc3)cc2)c1-c1ccccc1F` [(188), 2-[1-Biphenyl-4-yl-5-(2-fluorophenyl)-1H-pyrazol-4-yl]-ethylamine], the IC50 rises from 470 nM to 1400 nM (3-fold).

`Fc1ccccc1-c1c(CNCc2cccnc2)cnn1-c1ccc(-c2ccccc2)cc1` [(89), [1-Biphenyl-4-yl-5-(2-fluorophenyl)-1H-pyrazol-4-ylmethyl]-pyridin-3-ylmethylamine] and `Nc1ccncc1NCc1cnn(-c2ccc(-c3ccccc3)cc2)c1-c1ccccc1F` [(177), N^3-[1-Biphenyl-4-yl-5-(2-fluorophenyl)-1H-pyrazol-4-ylmethyl]-pyridine-3,4-diamine] are the same in IC50: 180 nM for the first, 180 nM for the second.

Going from `Fc1ccccc1-c1c(C=CCN2CCOCC2)cnn1-c1ccc(-c2ccccc2)cc1` [(46), 4-{3-[1-Biphenyl-4-yl-5-(2-fluorophenyl)-1H-pyrazol-4-yl]allyl}morpholine] to `O=C(c1cnn(-c2ccc(-c3ccccc3)cc2)c1-c1ccccc1F)N1CCOCC1` [(193), 1-[1-Biphenyl-4-yl-5-(2-fluorophenyl)-1H-pyrazol-4-yl]-1-morpholin-4-ylmethanone], the IC50 rises from 17 nM to 360 nM (21-fold). The first is the more potent here.

Compared with `Cn1cccc1CNCc1cnn(-c2ccc(-c3ccccc3)cc2)c1-c1ccccc1` [(171), (1-Biphenyl-4-yl-5-phenyl-1H-pyrazol-4-ylmethyl)-(1-methyl-1H-pyrrol-2-ylmethyl)amine], `Cn1ccnc1CNCc1cnn(-c2ccc(-c3ccccc3)cc2)c1-c1ccccc1` [(169), (1-Biphenyl-4-yl-5-phenyl-1H-pyrazol-4-ylmethyl)-(1-methyl-1H-imidazol-2-ylmethyl)amine] is 1.5-fold higher in IC50: 26 nM for the first, 39 nM for the second.

Going from `Cc1cc(CNCc2cnn(-c3ccc(-c4ccccc4)cc3)c2-c2ccccc2)no1` [(181), (1-Biphenyl-4-yl-5-phenyl-1H-pyrazol-4-ylmethyl)-(5-methylisoxazol-3-ylmethyl)amine] to `CC(=O)OCc1cnn(-c2ccc(-c3ccccc3)cc2)c1-c1ccccc1F` [(22), 1-Biphenyl-4-yl-5-(2-fluorophenyl)-1H-pyrazol-4-ylmethyl acetate], the IC50 rises from 240 nM to 1400 nM (5.8-fold). The first is the more potent here.

First: CN1CCN(Cc2cnn(-c3ccc(-c4ccccc4F)cc3)c2-c2ccc(F)cc2)CC1 [(99), 1-[1-(2′-Fluorobiphenyl-4-yl)-5-(4-fluorophenyl)-1H-pyrazol-4-ylmethyl]-4-methylpiperazine]
Second: CN1CCCN(Cc2cnn(-c3ccc(-c4ccccc4)cc3)c2-c2ccccc2F)CC1 [(93), 1-[1-Biphenyl-4-yl-5-(2-fluorophenyl)-1H-pyrazol-4-ylmethyl]-4-methyl-[1,4]diazepam]
The IC50 of the first is 33-fold higher: 210 nM for the first, 6.4 nM for the second.

Going from `CN1CCN(Cc2cnn(-c3ccc(-c4cc(F)ccc4F)nc3)c2-c2ccccc2F)CC1` [(147), 1-[1-[6-(2,5-Difluorophenyl)pyridin-3-yl]-5-(2-fluorophenyl)-1H-pyrazol-4-ylmethyl]-4-methylpiperazine] to `CC(C)c1ccc(-n2ncc(CN3CCN(C)CC3)c2-c2ccccc2F)cc1` [(114), 1-[5-(2-Fluorophenyl)-1-(4-isopropylphenyl)-1H-pyrazol-4-ylmethyl]-4-methylpiperazine], the IC50 falls from 430 nM to 120 nM (3.6-fold).

Going from `COCCN(C)Cc1cnn(-c2ccc(-c3ccccc3)nc2)c1-c1ccccc1F` [(134), [5-(2-Fluorophenyl)-1-(6-phenylpyridin-3-yl)-1H-pyrazol-4-ylmethyl]-(2-methoxyethyl)methylamine] to `Fc1ccc(-c2ccc(-n3ncc(CNc4cccnc4)c3-c3ccccc3F)cn2)cc1` [(144), {5-(2-Fluorophenyl)-1-[6-(4-fluorophenyl)pyridin-3-yl]-1H-pyrazol-4-ylmethyl}pyridin-3-ylamine], the IC50 rises from 300 nM to 890 nM (3-fold). The first is the more potent here.

Compared with `CC(C)(C)OC(=O)N1CC2C(C1)C2NCc1cnn(-c2ccc(-c3ccccc3)cc2)c1-c1ccccc1F` (stereo not shown) [(190), tert-Butyl 6-{[1-biphenyl-4-yl-5-(2-fluorophenyl)-1H-pyrazol-4-ylmethyl]amino}-3-azabicyclo[3.1.0]hexane-3-carboxylate], `CN1CC2CC1CN2Cc1cnn(-c2ccc(-c3ccccc3)cc2)c1-c1ccccc1F` (stereo not shown) [(109), 2-[1-Biphenyl-4-yl-5-(2-fluorophenyl)-1H-pyrazol-4-ylmethyl]-5-methyl-2,5-diazabicyclo[2.2.1]heptane] is 5.5-fold lower in IC50: 520 nM for the first, 94 nM for the second. The second is the more potent here.

Compared with `NC(=O)C1CCCN1Cc1cnn(-c2ccc(-c3ccccc3)cc2)c1-c1ccccc1F` (stereo not shown) [(155), 1-[1-Biphenyl-4-yl-5-(2-fluorophenyl)-1H-pyrazol-4-ylmethyl]-pyrrolidine-2-carboxamide], `CCN(CC)CC1CCCCN1Cc1cnn(-c2ccc(-c3ccccc3)cc2)c1-c1ccccc1F` (stereo not shown) [(51), {1-[1-Biphenyl-4-yl-5-(2-fluorophenyl)-1H-pyrazol-4-ylmethyl]-piperidin-2-ylmethyl}diethylamine] is 6.3-fold lower in IC50: 1700 nM for the first, 270 nM for the second. The second is the more potent here.

First: CN1CCN(Cc2cnn(-c3ccc(-c4ccsc4)cc3)c2-c2ccco2)CC1 [(70), 1-[5-Furan-2-yl-1-(4-thiophen-3-ylphenyl)-1H-pyrazol-4-ylmethyl]-4-methylpiperazine]
Second: Fc1ccccc1-c1c(CN2CCN(Cc3ccsc3)CC2)cnn1-c1ccc(-c2ccccc2)cc1 [(135), 1-[1-Biphenyl-4-yl-5-(2-florophenyl)-1H-pyrazol-4-ylmethyl]-4-thiophen-3-ylmethylpiperazine]
The IC50 of the first is 84-fold lower: 4.5 nM for the first, 380 nM for the second. The first is the more potent here.

Compared with `Fc1ccccc1-c1cc(CN2CCCCC2)nn1-c1ccc(-c2ccccc2)cc1` [(43), 1-[1-Biphenyl-4-yl-5-(2-fluorophenyl)-1H-pyrazol-3-ylmethyl]-piperidine], `Fc1ccc(-c2ccc(-n3ncc(CNc4cnccn4)c3-c3ccccc3F)cn2)cc1` [(196), {5-(2-Fluorophenyl)-1-[6-(4-fluorophenyl)pyridin-3-yl]-1H-pyrazol-4-ylmethyl}pyrazin-2-ylamine] is 10-fold higher in IC50: 120 nM for the first, 1200 nM for the second. The first is the more potent here.
